Measurements taken from patent US8258151B2, “3-aminoimidazo [1,2-A] pyridine derivatives as SGLT inhibitors” (Merck Patent GmbH, priority 2006, dated 2012).

Columns and labels:
SGLT1 = biological target: T1, SGLT1 (Homo sapiens, UniProt P13866); experiment: SGLT1 activity measurement: 14C-AMG uptake in BHK cells transfected with SGLT1; format: cell-based; details: AMG 50 μM, 37° C., 90 min
T1 construct: expressed in transfected cells
T1 sequence (P13866 1-664): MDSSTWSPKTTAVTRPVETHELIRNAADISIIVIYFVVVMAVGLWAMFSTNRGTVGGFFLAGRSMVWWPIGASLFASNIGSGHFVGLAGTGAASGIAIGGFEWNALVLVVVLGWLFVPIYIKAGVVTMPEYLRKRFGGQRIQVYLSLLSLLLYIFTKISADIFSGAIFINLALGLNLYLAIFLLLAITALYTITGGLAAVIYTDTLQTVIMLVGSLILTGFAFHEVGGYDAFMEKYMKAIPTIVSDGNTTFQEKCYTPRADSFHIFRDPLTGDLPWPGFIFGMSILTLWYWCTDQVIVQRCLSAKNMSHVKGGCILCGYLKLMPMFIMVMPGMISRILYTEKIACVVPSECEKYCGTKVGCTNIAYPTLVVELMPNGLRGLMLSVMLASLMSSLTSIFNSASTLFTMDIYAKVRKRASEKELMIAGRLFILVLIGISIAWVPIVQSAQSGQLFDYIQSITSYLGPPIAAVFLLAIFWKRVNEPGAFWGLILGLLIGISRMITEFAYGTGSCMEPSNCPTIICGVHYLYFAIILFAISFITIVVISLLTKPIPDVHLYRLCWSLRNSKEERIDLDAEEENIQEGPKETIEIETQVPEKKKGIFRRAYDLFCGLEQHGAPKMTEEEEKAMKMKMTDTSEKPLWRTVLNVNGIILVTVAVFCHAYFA
Summary of the method: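 BHK21 cells stably transfected with human SLC5A1 were incubated with 14C-AMG (added solution at 50 μM) ± compound for 90 min at 37 °C. The buffer was 140 mM NaCl, HEPES/Tris, pH 7.4. Lysed-cell radioactivity was counted by scintillation, and non-specific uptake was measured in sodium-free sucrose buffer.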

SGLT2 = biological target: T2, SGLT2 (Homo sapiens, UniProt P31639); experiment: SGLT2 activity measurement: 14C-AMG uptake in BHK cells transfected with SGLT2; format: cell-based; details: AMG 2 mM, 37° C., 90 min
T2 construct: expressed in transfected cells
T2 sequence (P31639 1-672): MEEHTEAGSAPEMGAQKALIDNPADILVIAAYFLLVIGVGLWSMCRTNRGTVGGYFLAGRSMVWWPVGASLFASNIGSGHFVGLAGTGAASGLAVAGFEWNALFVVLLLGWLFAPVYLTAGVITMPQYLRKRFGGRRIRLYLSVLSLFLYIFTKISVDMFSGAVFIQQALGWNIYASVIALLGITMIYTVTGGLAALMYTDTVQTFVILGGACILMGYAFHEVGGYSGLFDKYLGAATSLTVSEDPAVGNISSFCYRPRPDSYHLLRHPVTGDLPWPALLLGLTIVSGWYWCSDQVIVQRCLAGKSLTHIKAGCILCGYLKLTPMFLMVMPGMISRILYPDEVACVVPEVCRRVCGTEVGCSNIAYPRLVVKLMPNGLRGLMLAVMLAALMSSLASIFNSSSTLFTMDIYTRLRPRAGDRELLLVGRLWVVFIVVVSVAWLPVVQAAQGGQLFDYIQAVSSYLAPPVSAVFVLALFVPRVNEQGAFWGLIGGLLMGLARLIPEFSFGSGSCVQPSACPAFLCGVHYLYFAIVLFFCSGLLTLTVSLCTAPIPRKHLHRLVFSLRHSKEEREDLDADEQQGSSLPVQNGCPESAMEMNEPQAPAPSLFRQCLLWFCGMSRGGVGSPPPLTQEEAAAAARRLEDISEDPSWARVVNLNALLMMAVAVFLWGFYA
Summary of the method: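 BHK21 cells stably expressing human SGLT2 took up 14C-AMG (added as 2 mM solution) ± compound for 90 min at 37 °C in Na+-containing HEPES/Tris buffer, pH 7.4. Uptake was measured by scintillation counting after lysis. Non-specific uptake was defined in sodium-free sucrose buffer.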

| SMILES | IC50 (SGLT1) [µM] | IC50 (SGLT2) [µM] |
| --- | --- | --- |
| CCc1cc(OC)cc(OCC(N)=O)c1-c1nc2ccccn2c1Nc1c(C)cc(F)cc1C [Compound A203, 2-[2-(Aminocarbonylmethoxy)-4-methoxy-6-ethylphenyl]-3-(2,6-dimethyl-4-fluorophenyl-amino)imidazo[1,2-a]pyridine] | 1 to 10 | 0.01 to 1 |
| COc1cc(C)c(-c2nc3ccc(F)cn3c2Nc2c(F)cccc2F)c(OCC(N)=O)c1 [Compound A219, 2-[2-(Aminocarbonylmethoxy)-4-methoxy-6-methylphenyl]-3-(2,6-difluorophenylamino)-6-fluoroimidazo[1,2-a]pyridine] | 1 to 10 | 0.01 to 1 |
| COc1cc(C)c(-c2nc3ccc(F)cn3c2Nc2c(C)cccc2C)c(OCC(N)=O)c1OC [Compound A201, 2-[2-(Aminocarbonylmethoxy)-3,4-dimethoxy-6-methylphenyl]-3-(2,6-dimethylphenylamino)-6-fluoroimidazo[1,2-a]pyridine] | > 10 | 1 to 10 |
| COc1cc(C)c(-c2nc3ccc(F)cn3c2Nc2c(Br)cc(F)cc2Br)c(OCC(N)=O)c1 [Compound A238, 2-[2-(Aminocarbonylmethoxy)-4-methoxy-6-methylphenyl]-3-(2,6-dibromo-4-fluorophenyl-amino)-6-fluoroimidazo[1,2-a]pyridine] | 1 to 10 | 0.01 to 1 |
| CCc1cccc2nc(-c3ccccc3OCC(N)=O)c(Nc3c(C)cccc3C)n12 [Compound A13, 2-[2-(Aminocarbonylmethoxy)phenyl]-3-(2,6-dimethylphenylamino)-5-ethylimidazo[1,2-a]-pyridine] | 1 to 10 | 0.01 to 1 |
| CCc1cc(OC)cc(OCC(N)=O)c1-c1nc2ccccn2c1Nc1c(C)cccc1C [Compound A202, 2-[2-(Aminocarbonylmethoxy)-4-methoxy-6-ethylphenyl]-3-(2,6-dimethylphenylamino)-imidazo[1,2-a]pyridine] | 1 to 10 | 0.01 to 1 |
| COc1cc(C)c(-c2nc3ccc(F)cn3c2Nc2c(F)cccc2Cl)c(OCC(N)=O)c1 [Compound A248, 2-[2-(Aminocarbonylmethoxy)-4-methoxy-6-methylphenyl]-3-(2-fluoro-6-chlorophenylamino)-6-fluoroimidazo[1,2-a]pyridine] | > 10 | 0.01 to 1 |
| COc1cc(C)c(-c2nc3ccc(F)cn3c2Nc2c(C)cc(F)cc2C)c(OCC(N)=O)c1 [Compound A234, 2-[2-(Aminocarbonylmethoxy)-4-methoxy-6-methylphenyl]-3-(2,6-dimethyl-4-fluorophenyl-amino)-6-fluoroimidazo[1,2-a]pyridine] | 1 to 10 | 0.01 to 1 |
| COc1ccc(-c2nc3ccc(F)cn3c2Nc2c(C)cc(F)cc2C)c(OCC(N)=O)c1 [Compound A212, 2-[2-(Aminocarbonylmethoxy)-4-methoxy-phenyl]-3-(2,6-dimethyl-4-fluorophenylamino)-6-fluoroimidazo[1,2-a]pyridine] | > 10 | 0.01 to 1 |
| COc1ccc(-c2nc3ccccn3c2Nc2c(C)cccc2Cl)c(OCC(N)=O)c1 [Compound A15, 2-[2-(Aminocarbonylmethoxy)-4-methoxy-phenyl]-3-(2-chloro-6-methylphenylamino)-imidazo[1,2-a]pyridine] | 1 to 10 | 0.01 to 1 |
| CCc1cc(OC)cc(OCC(N)=O)c1-c1nc2ccc(F)cn2c1Nc1c(C)cccc1C(F)(F)F [Compound A247, 2-[2-(Aminocarbonylmethoxy)-4-methoxy-6-ethylphenyl]-3-(2-methyl-6-trifluoromethylphenyl-amino)-6-fluoroimidazo[1,2-a]pyridine] | > 10 | 0.01 to 1 |
| COc1cc(C)c(-c2nc3ccc(F)cn3c2Nc2c(C)ccc(Cl)c2C)c(OCC(N)=O)c1 [Compound A218, 2-[2-(Aminocarbonylmethoxy)-4-methoxy-6-methylphenyl]-3-(3-chloro-2,6-dimethylphenyl-amino)-6-fluoroimidazo[1,2-a]pyridine] | 1 to 10 | 0.01 to 1 |
| Cc1cccc(C)c1Nc1c(-c2c(C)cc(O)cc2OCC(N)=O)nc2ccccn12 [Compound A171, 2-[2-(Aminocarbonylmethoxy)-4-hydroxy-6-methylphenyl]-3-(2,6-dimethylphenylamino)-imidazo[1,2-a]pyridine] | > 10 | 0.01 to 1 |
| COC(=O)c1cccc(C)c1Nc1c(-c2c(C)cc(OC)cc2OCC(N)=O)nc2ccc(F)cn12 [Compound A246, 2-[2-(Aminocarbonylmethoxy)-4-methoxy-6-methylphenyl]-3-(2-methyl-6-methoxycarbonyl-phenylamino)-6-fluoroimidazo[1,2-a]pyridine] | > 10 | 1 to 10 |
| Cc1cccc(C)c1Nc1c(-c2c(OCC(N)=O)ccc3ccccc23)nc2ccc(F)cn12 [Compound A180, 2-{1-[3-(2,6-Dimethylphenylamino)-6-fluoro-imidazo[1,2-a]pyridin-2-yl]naphthalen-2-yloxy}-acetamide] | 1 to 10 | 0.01 to 1 |
| COc1cc(C)c(-c2nc3ccc(F)cn3c2Nc2c(F)cccc2C(F)(F)F)c(OCC(N)=O)c1 [Compound A242, 2-[2-(Aminocarbonylmethoxy)-4-methoxy-6-methylphenyl]-3-(2-fluoro-6-trifluoromethyl-phenylamino)-6-fluoroimidazo[1,2-a]pyridine] | 1 to 10 | 0.01 to 1 |
| COc1cc(C)c(-c2nc3ccc(F)cn3c2Nc2c(F)cc(F)cc2F)c(OCC(N)=O)c1 [Compound A244, 2-[2-(Aminocarbonylmethoxy)-4-methoxy-6-methylphenyl]-3-(2,4,6-trifluorophenylamino)-6-fluoroimidazo[1,2-a]pyridine] | 1 to 10 | 0.01 to 1 |
| Cc1cc(C)c(-c2nc3ccccn3c2Nc2c(C)cccc2C)c(OCC(N)=O)c1 [Compound A168, 2-[2-(Aminocarbonylmethoxy)-4,6-dimethyl-phenyl]-3-(2,6-dimethylphenylamino)imidazo-[1,2-a]pyridine] | > 10 | 0.01 to 1 |
| COc1cc(C)c(-c2nc3cccc(C)n3c2Nc2c(C)cccc2C)c(OCC(N)=O)c1 [Compound A206, 2-[2-(Aminocarbonylmethoxy)-4-methoxy-6-methylphenyl]-3-(2,6-dimethylphenylamino)-5-methylimidazo[1,2-a]pyridine] | > 10 | 0.01 to 1 |
| COc1cc(C)c(-c2nc3ccc(F)cn3c2Nc2c(Br)cc(C)cc2Br)c(OCC(N)=O)c1 [Compound A239, 2-[2-(Aminocarbonylmethoxy)-4-methoxy-6-methylphenyl]-3-(2,6-dibromo-4-methylphenyl-amino)-6-fluoroimidazo[1,2-a]pyridine] | 0.01 to 1 | 0.01 to 1 |
| CCc1cc(OCCO)cc(OCC(N)=O)c1-c1nc2ccc(F)cn2c1Nc1c(C)cccc1C [Compound A195, 2-[2-(Aminocarbonylmethoxy)-4-(2-hydroxy-ethoxy)-6-ethylphenyl]-3-(2,6-dimethylphenyl-amino)-6-fluoroimidazo[1,2-a]pyridine] | > 10 | 0.01 to 1 |
| COc1cc(C)c(-c2nc3ccc(F)cn3c2Nc2c(C)cc(Br)c(C)c2Br)c(OCC(N)=O)c1 [Compound A249, 2-[2-(Aminocarbonylmethoxy)-4-methoxy-6-methylphenyl]-3-(2,5-dimethyl-4,6-dibromophenylamino)-6-fluoroimidazo[1,2-a]-pyridine] | 1 to 10 | 1 to 10 |
| COc1ccc(-c2nc3ccc(F)cn3c2Nc2c(C)cccc2C)c(OCC(N)=O)c1 [Compound A211, 2-[2-(Aminocarbonylmethoxy)-4-methoxy-phenyl]-3-(2,6-dimethylphenylamino)-6-fluoro-imidazo[1,2-a]pyridine] | > 10 | 0.01 to 1 |
